Counter-ions that a name gives are not always drawn.
Key:
[1] = system: breast (MCF 7) adenocarcinoma cell line; assay: Methylene blue assay on stabilized human neoplastic cell lines; format: cell-based
Procedure: (§1) The effects of L-aC on stabilized human neoplastic cell lines were tested using the methylene blue assay.
(§2) Acute promyelocytic leukemia cell line (HL60) and prostate (Du 145), colon (HT 29) and breast (MCF 7) adenocarcinoma cell lines have been used.
(§3) Cell suspensions at concentrations of 10^5 cells/ml were prepared.
(§4) 100 μl of the obtained cell suspension were inoculated on 96 well plates and incubated at 37° for 12 hours, to obtain cell adhesion to the plates. After 12 hours, L-aC was added at the concentrations of 0.2 mg/ml, 2 mg/ml, 20 mg/ml. […] Subsequently ethanol was removed and 1% methylene-blue was added for 2 hours. The dye was then removed and the plates were dried before adding 1M HCl.
(§5) The cytotoxicity percentage was calculated using the following formula:
(§6) (1−[O^D treated cells/O^D control cells)×100.
(§7) The optical density was evaluated by Uniskan micro-spectrophotometer with 630 nmwavelength filter.
(§8) The induction of apoptosis (appraised by Giemsa staining) was remarkable mainly on stabilized human neoplastic cell lines from breast and colon carcinomas.

[2] = system: colon (HT 29) adenocarcinoma cell line; assay: as above; format: cell-based
Procedure: as §1, §2, §3, §4, §5, §6, §7, §8

[3] = system: prostate (Du 145) adenocarcinoma cell line; assay: as above; format: cell-based; details: prostate carcinoma line
Procedure: as §1, §2, §3
(§9) 100 μl of the obtained cell suspension were inoculated on 96 well plates and incubated at 37° for 12 hours, to obtain cell adhesion to the plates. After 12 hours, L-aC was added at the concentrations of 0.2 mg/ml, 2 mg/ml, 20 mg/ml. After 72 hours, the culture medium was removed and 100 μl of 100% ethanol were added for 30 min. Subsequently ethanol was removed and 1% methylene-blue was added for 2 hours. The dye was then removed and the plates were dried before adding 1M HCl.
as §5, §6, §7

[4] = system: Acute promyelocytic leukemia cell line (HL60); assay: as above; format: cell-based
Procedure: as §1, §2, §3, §9, §5, §6, §7

[5] = system: HL60, Du 145, HT 29 and MCF 7 cell lines; assay: Sensitivity and apoptosis in all assayed stabilized human neoplastic cell lines; format: cell-based
Procedure: as §1, §2, §3, §9
The induction of apoptosis has been detected due to nuclear cromatin condensation, cytoplasmic shrinking, endoplasmic reticulum dilatation and membrane blebbing together with DNA fragmentation.

[6] = system: cells from 4 primitive epidermoid carcinomas of the larynx and 1 primitive undifferentiated carcinoma of the nasopharynx; assay: In vitro short-term chemosensitivity assay (MTT), all five explants; format: cell-based, human
Procedure: The effects of L-aC on cells from 4 primitive epidermoid carcinomas of the larynx and 1 primitive undifferentiated carcinoma of the nasopharynx were tested.
Tissue fragments from the tumour mass were mechanically dissociated in Hank's solutions adding an antibiotic and an antifungal to obtain a cell monosuspension free of agglomerates. The resulting suspension was centrifuged at 1200 rpm for 5 minutes and the pellet was resuspended in MEM culture medium supplemented with 10% of patient serum, to obtain a concentration of 10^5 cells/ml. Subsequently, 180 μl of the resulting suspension were dispensed in microplate wells and incubated under 5% CO2 atmosphere at 37° C. for 3 days. After that, the antitumor medicaments were added in the amount of 20 μl for each well, at a concentration of 0.1×, 1× and 10× the maximum serum concentrations that can usually be reached in clinical practice. 24 h after the beginning of the exposure to the antitumour medicament, 100 μl of MTT were added, and after 4 h, a further 150 μl of dimethylsulfoxide were added.
The optical density was evaluated by a Uniscan microspectrophotometer with a […] wavelength filter. Cytotoxicity was evaluated as percentage of the optical density of the treated sample compared with the optical density of the control.
Bleomycin (BLEC), […] (CDDP), 5-fluoruracil (5-FU), vincristine (VCR), epidoxorubicin (Epi-Dx) and methotrexate (MTX) were tested for comparison purposes.
L-aC was tested at the following concentrations: 0.2-2-20 mg/ml.

Yoshida tumour = assay: Survived rats reinoculated with Yoshida tumour; format: in vivo, Sprague-Dowley rats
Procedure: 20 survivors rats previously transplanted with Yoshida tumour and subjected to the treatment on alternate days with 25 mg of L-aC diluted in 5 ml of saline solution […], were reinoculated with the tumour, at the end of the 6 week observation period.

[7] = 20 mg/ml, 48 hours after exposure

Question: Which results are given for `CC(=O)OC(CC(=O)[O-])C[N+](C)(C)C` [L-aC, L-acetylcarnitine hydrochloride]?
Answer: cytotoxicity (percentage of dead cells) [1, 7]: 68%; induction of apoptosis (Giemsa staining) ([1]; breast carcinoma line): remarkable; cytotoxicity (percentage of dead cells) [2, 7]: 63%; induction of apoptosis (Giemsa staining) ([2]; colon carcinoma line): remarkable; cytotoxicity [3]: 58%; cytotoxicity [4]: 52%; programmed cell death phenomena ([5]; 0.2 mg/ml, all assayed cell lines): Phenomena suggestive of programmed cell death were already observed; programmed cell death phenomena ([5]; 2 mg/ml): more marked and evident; change of effect over concentration range ([5]; 2 to 20 mg/ml): No significant changes; sensitivity of the tested cell lines ([5]; all tested cell lines): sensitive; IC50 ([6]; Homo sapiens, read-out: IC 50 concentrations): 20 to 700 µg/mL; IC90 ([6]; Homo sapiens, read-out: IC 90 concentrations): 700 to 20000 µg/mL; most active medicaments (cases out of 5) ([6]; five explants): 4/5; ascites after reinoculation (Yoshida tumour; 20 survivors (25 mg L-aC alternate days, 4 weeks), until day 14 after reinoculation): no animals showed ascites; outcome of repeated reinoculation (Yoshida tumour; second reinoculation): unsuccessfully

Source: patent US6673839B1, “Pharmaceutical compositions with antitumour activity” (Universita' Degli Studi di Catania, priority 1998, dated 2004)
